Source: ChEMBL document CHEMBL5120945, “First-in-Class Allosteric Inhibitors of DNMT3A Disrupt Protein-Protein Interactions and Induce Acute Myeloid Leukemia Cell Differentiation” (J Med Chem, 2022)
Activity calls are given as the source filed them.

Tests used:
[1] = target: T1, DNMT3A2/3L complex (Homo sapiens) (UniProt Q9Y6K1+Q9UJW3); assay: Inhibition of wild type full length recombinant human DNMT3A expressed in NiCo21(DE3) competent Escherichia coli cells to DNMT3L (unknown origin) protein-protein interaction
T1 sequence (Q9UJW3 whole entry, looked up): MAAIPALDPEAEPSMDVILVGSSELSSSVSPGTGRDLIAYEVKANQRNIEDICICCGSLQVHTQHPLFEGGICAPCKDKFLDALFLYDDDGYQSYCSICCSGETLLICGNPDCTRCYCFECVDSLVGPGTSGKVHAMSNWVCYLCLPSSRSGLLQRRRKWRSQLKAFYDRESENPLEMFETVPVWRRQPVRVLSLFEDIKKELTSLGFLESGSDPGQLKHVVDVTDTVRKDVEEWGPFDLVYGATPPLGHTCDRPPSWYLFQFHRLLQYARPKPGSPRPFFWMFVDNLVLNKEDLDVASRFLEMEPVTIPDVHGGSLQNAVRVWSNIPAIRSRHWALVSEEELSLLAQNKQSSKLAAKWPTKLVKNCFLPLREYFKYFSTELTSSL
T1 sequence (Q9Y6K1 whole entry, looked up): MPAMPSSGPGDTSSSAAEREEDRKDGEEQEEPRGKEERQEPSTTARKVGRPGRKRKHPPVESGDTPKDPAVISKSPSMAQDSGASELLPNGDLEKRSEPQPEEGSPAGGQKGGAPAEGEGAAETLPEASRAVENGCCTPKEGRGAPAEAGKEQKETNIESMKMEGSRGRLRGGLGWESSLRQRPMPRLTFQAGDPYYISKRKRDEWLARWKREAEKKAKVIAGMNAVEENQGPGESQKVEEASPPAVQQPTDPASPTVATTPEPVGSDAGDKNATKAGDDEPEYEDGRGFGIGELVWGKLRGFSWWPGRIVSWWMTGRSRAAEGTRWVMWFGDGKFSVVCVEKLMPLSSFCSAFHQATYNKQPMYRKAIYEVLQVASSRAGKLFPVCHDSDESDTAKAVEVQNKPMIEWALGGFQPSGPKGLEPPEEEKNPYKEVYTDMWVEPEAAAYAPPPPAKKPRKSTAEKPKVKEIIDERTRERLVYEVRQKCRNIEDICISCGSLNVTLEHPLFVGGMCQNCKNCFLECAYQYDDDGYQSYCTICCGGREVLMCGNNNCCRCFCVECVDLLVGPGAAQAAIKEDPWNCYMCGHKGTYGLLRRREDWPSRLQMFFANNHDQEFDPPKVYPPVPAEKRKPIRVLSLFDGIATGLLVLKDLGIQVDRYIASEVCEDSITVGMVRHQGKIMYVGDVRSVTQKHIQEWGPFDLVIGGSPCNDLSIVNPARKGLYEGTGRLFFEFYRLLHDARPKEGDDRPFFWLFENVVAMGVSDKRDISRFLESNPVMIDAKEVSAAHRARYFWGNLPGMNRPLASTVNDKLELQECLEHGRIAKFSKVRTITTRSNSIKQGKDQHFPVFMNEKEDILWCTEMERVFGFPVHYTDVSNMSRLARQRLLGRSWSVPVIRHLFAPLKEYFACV

[2] = target: T1, DNMT3A2/3L complex (Homo sapiens); assay: […] of wild type full length recombinant human DNMT3A expressed in NiCo21(DE3) competent Escherichia coli cells to DNMT3L protein-protein interaction
[3] = target: DNA (cytosine-5)-methyltransferase 3A (Homo sapiens) (UniProt Q9Y6K1); assay: Inhibition of H3 peptide activated human full length DNMT3A expressed in NiCo21(DE3) competent Escherichia coli cells at 60 uM
Chain of DNA (cytosine-5)-methyltransferase 3A (Homo sapiens) (Q9Y6K1 whole entry, looked up): as above

[4] = target: Lysine-specific demethylase 5A (Homo sapiens) (UniProt P29375); assay: Inhibition of KDM5A (1 to 797) activity using 21-mer biotinylated H3K4me3 peptide measured after 40 mins by TR-FRET assay
Chain of Lysine-specific demethylase 5A (Homo sapiens) (P29375 whole entry): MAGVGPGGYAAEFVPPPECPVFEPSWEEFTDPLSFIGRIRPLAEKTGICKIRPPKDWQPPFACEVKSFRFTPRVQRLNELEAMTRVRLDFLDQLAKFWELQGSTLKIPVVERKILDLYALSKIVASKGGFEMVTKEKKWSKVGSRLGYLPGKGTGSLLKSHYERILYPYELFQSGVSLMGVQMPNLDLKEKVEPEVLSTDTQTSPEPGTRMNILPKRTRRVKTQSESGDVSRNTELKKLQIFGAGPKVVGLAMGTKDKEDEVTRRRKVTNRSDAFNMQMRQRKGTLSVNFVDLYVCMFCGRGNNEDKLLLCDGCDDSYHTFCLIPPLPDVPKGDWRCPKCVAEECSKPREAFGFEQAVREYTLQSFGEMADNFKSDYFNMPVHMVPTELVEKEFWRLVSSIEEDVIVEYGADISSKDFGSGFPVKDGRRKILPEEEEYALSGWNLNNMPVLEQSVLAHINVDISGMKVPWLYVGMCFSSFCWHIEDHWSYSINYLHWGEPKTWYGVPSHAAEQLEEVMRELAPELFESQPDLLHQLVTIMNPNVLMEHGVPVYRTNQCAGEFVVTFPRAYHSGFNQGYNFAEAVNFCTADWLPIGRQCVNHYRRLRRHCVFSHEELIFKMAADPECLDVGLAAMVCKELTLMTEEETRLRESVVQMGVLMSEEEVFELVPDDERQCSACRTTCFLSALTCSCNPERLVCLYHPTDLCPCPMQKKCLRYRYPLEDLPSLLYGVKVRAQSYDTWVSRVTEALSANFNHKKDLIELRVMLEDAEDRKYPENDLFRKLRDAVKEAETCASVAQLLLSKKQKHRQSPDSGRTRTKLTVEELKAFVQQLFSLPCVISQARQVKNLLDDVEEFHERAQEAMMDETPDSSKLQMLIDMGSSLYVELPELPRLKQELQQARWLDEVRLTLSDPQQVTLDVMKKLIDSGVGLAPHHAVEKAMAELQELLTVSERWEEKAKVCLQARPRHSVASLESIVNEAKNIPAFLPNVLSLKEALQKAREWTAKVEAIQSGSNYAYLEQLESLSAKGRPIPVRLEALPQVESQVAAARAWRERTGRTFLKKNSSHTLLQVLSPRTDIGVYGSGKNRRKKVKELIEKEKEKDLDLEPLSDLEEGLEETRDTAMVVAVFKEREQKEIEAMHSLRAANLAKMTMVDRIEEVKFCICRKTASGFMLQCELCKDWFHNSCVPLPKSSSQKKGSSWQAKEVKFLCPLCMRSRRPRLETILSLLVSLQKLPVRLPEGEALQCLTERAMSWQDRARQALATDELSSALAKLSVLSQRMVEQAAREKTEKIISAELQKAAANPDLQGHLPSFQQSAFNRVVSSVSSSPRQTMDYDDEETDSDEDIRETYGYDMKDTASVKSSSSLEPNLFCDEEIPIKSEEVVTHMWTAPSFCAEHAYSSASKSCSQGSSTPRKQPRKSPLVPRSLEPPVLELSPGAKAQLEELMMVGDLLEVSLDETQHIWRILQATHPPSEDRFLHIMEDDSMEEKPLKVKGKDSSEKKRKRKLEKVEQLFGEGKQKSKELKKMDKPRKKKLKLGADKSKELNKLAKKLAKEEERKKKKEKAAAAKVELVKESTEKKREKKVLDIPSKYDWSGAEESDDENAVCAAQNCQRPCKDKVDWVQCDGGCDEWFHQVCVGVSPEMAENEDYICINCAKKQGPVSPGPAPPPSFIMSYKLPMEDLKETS

[5] = target: DNA (cytosine-5)-methyltransferase 3A (Homo sapiens) (UniProt Q9Y6K1); assay: Inhibition of wild type full length recombinant human DNMT3A expressed in NiCo21(DE3) competent Escherichia coli cells assessed as decrease the fluorescence anisotrophy of DNA bound protein using FAM/TGGATATCTAGGGGCGCTATGATAT as substrate incubated for 5 mins by microplate reader based fluorescence anisotropy assay
[6] = species: Homo sapiens; assay: Inhibition of wild type full length recombinant human DNMT3A expressed in NiCo21(DE3) competent Escherichia coli cells to human TDG protein protein interaction using FAM/TGGATATCTAGGGGCGCTATGATAT as substrate incubated for 5 mins by microplate reader based fluorescence anisotropy assay; settings: DDE = dose-dependent effect
[7] = species: Homo sapiens; assay: Inhibition of wild type full length recombinant human DNMT3A expressed in NiCo21(DE3) competent Escherichia coli cells to human p53 protein-protein interaction using FAM/TGGATATCTAGGGGCGCTATGATAT as substrate incubated for 5 mins by microplate reader based fluorescence anisotropy assay; settings: DDE = dose-dependent effect
[8] = species: Homo sapiens; assay: Inhibition of full length recombinant human DNMT3A R882H mutant expressed in NiCo21(DE3) competent Escherichia coli cells to DNMT3L (unknown origin) protein-protein interaction
[9] = species: Homo sapiens; assay: Inhibition of full length recombinant human DNMT3A R882H mutant expressed in NiCo21(DE3) competent Escherichia coli cells
[10] = species: Homo sapiens; assay: Inhibition of full length recombinant human DNMT3A R882H mutant expressed in NiCo21(DE3) competent Escherichia coli cells to DNMT3L (unknown origin) using FAM-DNA as substrate
[11] = species: Homo sapiens; assay: Inhibition of full length recombinant human DNMT3A R882H mutant expressed in NiCo21(DE3) competent Escherichia coli cells to human p53
[12] = species: Homo sapiens; assay: Inhibition of full length recombinant human DNMT3A R882H mutant expressed in NiCo21(DE3) competent Escherichia coli cells to human TDG
[13] = target: T1, DNMT3A2/3L complex (Homo sapiens); assay: Inhibition of DNMT3L-mediated wild type full length recombinant human DNMT3A homo tetramer expressed in NiCo21(DE3) competent Escherichia coli cells to DNMT3L protein-protein interaction assessed as DNA methylation using poly dl-dC as substrate incubated for 1 hr
[14] = species: Homo sapiens; assay: Inhibition of full length recombinant human DNMT3A R729 mutant tetramer expressed in NiCo21(DE3) competent Escherichia coli cells
[15] = species: Homo sapiens; assay: Inhibition of full length recombinant human DNMT3A E733 mutant tetramer expressed in NiCo21(DE3) competent Escherichia coli cells
[16] = species: Homo sapiens; assay: Inhibition of full length recombinant human DNMT3A R736 mutant tetramer expressed in NiCo21(DE3) competent Escherichia coli cells
[17] = species: Homo sapiens; assay: Inhibition of full length recombinant human DNMT3A R729A mutant tetramer expressed in NiCo21(DE3) competent Escherichia coli cells to DNMT3L (unknown origin) protein-protein interaction preincubated for 1 hr
[18] = species: Homo sapiens; assay: Inhibition of full length recombinant human DNMT3A E733A mutant tetramer expressed in NiCo21(DE3) competent Escherichia coli cells to DNMT3L (unknown origin) protein-protein interaction preincubated for 1 hr
[19] = species: Homo sapiens; assay: Inhibition of full length recombinant human DNMT3A R736A mutant tetramer expressed in NiCo21(DE3) competent Escherichia coli cells to DNMT3L (unknown origin) protein-protein interaction preincubated for 1 hr
[20] = species: Homo sapiens; assay: Inhibition of full length recombinant human DNMT3A R771A mutant tetramer expressed in NiCo21(DE3) competent Escherichia coli cells to DNMT3L (unknown origin) protein-protein interaction preincubated for 1 hr
[21] = species: Homo sapiens; assay: Inhibition of full length recombinant human DNMT3A R771A mutant expressed in NiCo21(DE3) competent Escherichia coli cells to DNMT3L (unknown origin) protein-protein interaction using FAM-DNA as substrate by fluorescence anisotropy assay
[22] = tested on: HL-60; assay: Induction of apoptosis in human HL-60 cells measured after 72 hrs by annexinVstaining based flow cytometry; assay type: functional, cell-based; settings: dose 7-12 µM, DDE = dose-dependent effect
[23] = tested on: K562; assay: Induction of apoptosis in human K562 cells measured after 72 hrs by annexinV staining based flow cytometry; assay type: functional, cell-based; settings: dose 7-12 µM, DDE = dose-dependent effect
[24] = tested on: MV4-11; assay: Induction of apoptosis in human MV4-11 cells measured after 72 hrs by annexinVstaining based flow cytometry; assay type: functional, cell-based; settings: dose 7-12 µM, DDE = dose-dependent effect
[25] = tested on: OCI-AML-3; assay: Induction of apoptosis in human OCI-AML-3 cells measured after 72 hrs by annexinV staining based flow cytometry; assay type: functional, cell-based; settings: dose 7-12 µM, DDE = dose-dependent effect
[26] = tested on: Kasumi 1; assay: Induction of apoptosis in human Kasumi 1 cells measured after 72 hrs by annexinV staining based flow cytometry; assay type: functional, cell-based; settings: dose 7-12 µM, DDE = dose-dependent effect
[27] = tested on: THP-1; assay: Induction of apoptosis in human THP-1 cells measured after 72 hrs by annexinV staining based flow cytometry; assay type: functional, cell-based; settings: dose 7-12 µM, DDE = dose-dependent effect
[28] = tested on: MOLM-13; assay: Induction of apoptosis in human MOLM-13 cells measured after 72 hrs by annexinV staining based flow cytometry; assay type: functional, cell-based; settings: dose 7-12 µM, DDE = dose-dependent effect
[29] = tested on: MV4-11; assay: Induction of myeloid differentiation in human MV4-11 cells assessed as increase in CD11b level measured after 72 hrs by propidium iodide staining based flow cytometry; assay type: functional, cell-based; settings: dose 5-10 µM, DDE = dose-dependent effect
[30] = tested on: MOLM-13; assay: Induction of myeloid differentiation in human MOLM-13 cells assessed as increase in CD11b level measured after 72 hrs by propidium iodide staining based flow cytometry; assay type: functional, cell-based; settings: dose 5-10 µM, DDE = dose-dependent effect
[31] = tested on: THP-1; assay: Induction of myeloid differentiation in human THP-1 cells assessed as increase in CD11b level measured after 72 hrs by propidium iodide staining based flow cytometry; assay type: functional, cell-based; settings: dose 5-10 µM, DDE = dose-dependent effect
[32] = tested on: OCI-AML-3; assay: Induction of DNA methylation in human OCI-AML-3 cells at 5 uM by ELISA; assay type: functional, cell-based; settings: time 3.0 day, TDE = time-dependent effect
[33] = tested on: K562; assay: Induction of DNA methylation in human K562 cells at 5 uM by ELISA; assay type: functional, cell-based; settings: time 3.0 day, TDE = time-dependent effect
[34] = tested on: OCI-AML-3; assay: Induction of myeloid differentiation in human OCI-AML-3 cells assessed as increase in CD11b level measured after 72 hrs by propidium iodide staining based flow cytometry; assay type: functional, cell-based; settings: dose 5-10 µM, DDE = dose-dependent effect
[35] = tested on: Kasumi 1; assay: Induction of myeloid differentiation in human Kasumi 1 cells assessed as increase in CD11b level measured after 72 hrs by propidium iodide staining based flow cytometry; assay type: functional, cell-based; settings: DDE = dose-dependent effect
[36] = tested on: HL-60; assay: Induction of myeloid differentiation in human HL-60 cells assessed as increase in CD11b level measured after 72 hrs by propidium iodide staining based flow cytometry; assay type: functional, cell-based; settings: DDE = dose-dependent effect
[37] = tested on: K562; assay: Induction of myeloid differentiation in human K562 cells assessed as increase in CD11b level measured after 72 hrs by propidium iodide staining based flow cytometry; assay type: functional, cell-based; settings: DDE = dose-dependent effect
[38] = tested on: HL-60; assay: Induction of DNA methylation in human HL-60 cells at 5 uM by ELISA; assay type: functional, cell-based; settings: time 3.0 day, TDE = time-dependent effect
[39] = target: T1, DNMT3A2/3L complex (Homo sapiens); assay: Inhibition of DNMT3L-mediated wild type full length recombinant human DNMT3A hetero tetramer expressed in NiCo21(DE3) competent Escherichia coli cells to DNMT3L protein-protein interaction assessed as DNA methylation using poly dl-dC as substrate incubated for 1 hr

COc1ccc(C2=NN(C3CCCCCC3)C(=O)C2(C)C)cc1OCCCCOc1ccc(-c2nn[nH]n2)cc1
active: inhibition [1] | Activity [2] | inhibition [3] | inhibition [4] | inhibition [5] | inhibition [6] Dde | inhibition [7] Dde | inhibition [8] | inhibition [9] | inhibition [10] | inhibition [11] | inhibition [12]

COc1ccc(C2=NN(C3CCCCCC3)C(=O)[C@@H]3CC=CC[C@H]23)cc1OCCCCOc1ccc(-c2nnn[nH]2)cc1
active: inhibition [1] | inhibition [13] | Activity [2] | inhibition [3] | inhibition [4] | inhibition [5] | inhibition [6] Dde | inhibition [7] Dde | inhibition [14] | inhibition [15] | inhibition [16] | inhibition [17] | inhibition [18] | inhibition [19] | inhibition [20] | inhibition [21] | inhibition [8] | inhibition [9] | inhibition [10] | inhibition [11] | inhibition [12] | Activity [22] Dde | Activity [23] Dde | Activity [24] Dde | Activity [25] Dde | Activity [26] Dde | Activity [27] Dde | Activity [28] Dde | Activity [29] Dde | Activity [30] Dde | Activity [31] Dde | Activity [32] Tde | Activity [33] Tde | Activity [34] Dde | Activity [35] Dde | Activity [36] Dde | Activity [37] Dde | Activity [38] Tde | inhibition [39]
